ChEMBL document CHEMBL1201862, “PubChem BioAssay data set” (2004)
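In this assay, cells in 96-well plates receive the compound at five concentrations for 48 hours. Endpoints are linearly interpolated between the surrounding concentrations. At the GI50, growth is halved.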 Calls of active or inactive are those of the source. Cut-off read from the data, not from the text of the source: active = GI50 up to about 1.1 µM and inactive = higher.

Legend:
Experiment in all cases: inhibition of tumour cell growth, NCI panel, 48 h
TK-10 = tested on: TK-10
HCT-116 = tested on: HCT-116
DU-145 = tested on: DU-145
CCRF-CEM = tested on: CCRF-CEM
SF-295 = tested on: SF-295
EKVX = tested on: EKVX
HOP-62 = tested on: HOP-62
SN12C = tested on: SN12C
SNB-75 = tested on: SNB-75
CAKI-1 = tested on: CAKI-1
RXF 393 = tested on: RXF 393
HOP-92 = tested on: HOP-92
COLO 205 = tested on: COLO 205
SK-OV-3 = tested on: SK-OV-3
SK-MEL-5 = tested on: SK-MEL-5
U-251 = tested on: U-251
OVCAR-3 = tested on: OVCAR-3
SK-MEL-2 = tested on: SK-MEL-2
A549 = tested on: A549
SF-539 = tested on: SF-539

SMILES | GI50 (TK-10) | GI50 (HCT-116) | GI50 (DU-145) | GI50 (CCRF-CEM) | GI50 (SF-295) | GI50 (EKVX) | GI50 (HOP-62) | GI50 (SN12C) | GI50 (SNB-75) | GI50 (CAKI-1) | GI50 (RXF 393) | GI50 (HOP-92) | GI50 (COLO 205) | GI50 (SK-OV-3) | GI50 (SK-MEL-5) | GI50 (U-251) | GI50 (OVCAR-3) | GI50 (SK-MEL-2) | GI50 (A549) | GI50 (SF-539)
Cc1ccc(O)c(C2=CC3=NNC(=O)C3C(c3cccc(Cl)c3)C2)c1 (centres undefined) | 28.1 µM (inactive) | 30.9 µM (inactive) | 43.4 µM (inactive) | 31.6 µM (inactive) | 37.6 µM (inactive) | 37.3 µM (inactive) | 58.9 µM (inactive) | 32.5 µM (inactive) | 18.5 µM (inactive) | 32.5 µM (inactive) | 2.56 µM (inactive) | 24 µM (inactive) | 16 µM (inactive) | 23.9 µM (inactive) | 32.1 µM (inactive) | 35.5 µM (inactive) | 26.4 µM (inactive) | 28.2 µM (inactive) | 52.5 µM (inactive) | 45.2 µM (inactive)
Oc1cc(Br)cc2cccnc12 | 31.5 µM (inactive) | 1.78 µM (inactive) | 9.91 µM (inactive) | 0.597 µM (active) | 1.67 µM (inactive) | 2.09 µM (inactive) | 5.31 µM (inactive) | 2.1 µM (inactive) | 15.2 µM (inactive) | 3.15 µM (inactive) | 2.05 µM (inactive) | 5.15 µM (inactive) | 11.6 µM (inactive) | 27.6 µM (inactive) | 2.38 µM (inactive) | 1.58 µM (inactive) | 1.05 µM (active) | 15.6 µM (inactive) | 1.52 µM (inactive) | 2.16 µM (inactive)
O=C1/C(=C/C=C/c2ccccc2)CCC1CNc1ccccc1 (centres undefined) | 33 µM (inactive) | 17.9 µM (inactive) | > 93.3 µM (inactive) | 3.48 µM (inactive) | > 100 µM (inactive) | > 100 µM (inactive) | > 100 µM (inactive) | 23.2 µM (inactive) | > 100 µM (inactive) | 40.2 µM (inactive) | 19.8 µM (inactive) | 47.8 µM (inactive) | 28.9 µM (inactive) | > 100 µM (inactive) | 67 µM (inactive) | > 59.3 µM (inactive) | 23.7 µM (inactive) |  | > 66.2 µM (inactive) | > 54.5 µM (inactive)
FC(F)(Sc1nc2ccccc2[nH]1)c1nc2ccccc2o1 | > 100 µM (inactive) | > 100 µM (inactive) | > 100 µM (inactive) | > 100 µM (inactive) | > 100 µM (inactive) |  | > 100 µM (inactive) | > 100 µM (inactive) | > 100 µM (inactive) | > 100 µM (inactive) | > 100 µM (inactive) | > 100 µM (inactive) | > 100 µM (inactive) | > 100 µM (inactive) | > 100 µM (inactive) | > 100 µM (inactive) | > 100 µM (inactive) | > 100 µM (inactive) | > 100 µM (inactive) | > 100 µM (inactive)
Sc1ncc(-c2cncc(-c3cnc(S)nc3)n2)cn1 | > 100 µM (inactive) | > 100 µM (inactive) | > 100 µM (inactive) | > 100 µM (inactive) | > 100 µM (inactive) | > 100 µM (inactive) |  | > 100 µM (inactive) | > 100 µM (inactive) | > 100 µM (inactive) | > 100 µM (inactive) | > 100 µM (inactive) | > 100 µM (inactive) | > 100 µM (inactive) | > 100 µM (inactive) | > 100 µM (inactive) | > 100 µM (inactive) | > 100 µM (inactive) | > 100 µM (inactive) | > 100 µM (inactive)
COc1cc2oc(-c3ccc4c(c3)OCO4)c(OC)c(=O)c2c(O)c1OC | > 50 µM (inactive) | > 50 µM (inactive) | > 50 µM (inactive) | > 50 µM (inactive) | 43.8 µM (inactive) | > 50 µM (inactive) | 15.7 µM (inactive) | > 50 µM (inactive) | 28.6 µM (inactive) | > 50 µM (inactive) | > 50 µM (inactive) | 22.8 µM (inactive) | > 50 µM (inactive) | > 50 µM (inactive) | > 50 µM (inactive) | 18.9 µM (inactive) | > 50 µM (inactive) | > 50 µM (inactive) | > 50 µM (inactive) | > 50 µM (inactive)
CCOC(=O)C(=C(SC)SC)c1nn2c(=O)cc(C)nc2s1 | 23.4 µM (inactive) | 16.4 µM (inactive) | 16.5 µM (inactive) | 22.6 µM (inactive) | 71.8 µM (inactive) | 24.3 µM (inactive) | > 100 µM (inactive) | 33.1 µM (inactive) | 31.4 µM (inactive) | 24.6 µM (inactive) | 22.6 µM (inactive) | 16.9 µM (inactive) | 18.6 µM (inactive) | 69.7 µM (inactive) | 22 µM (inactive) | 23.6 µM (inactive) | 18.7 µM (inactive) | 20.1 µM (inactive) | 49.5 µM (inactive) | 18.2 µM (inactive)
CC1(/C=C/CCSc2ccccc2)CC(=O)C2CC1C2(C)C (centres undefined) | 14.9 µM (inactive) | 13 µM (inactive) | 44.3 µM (inactive) | 6.49 µM (inactive) | 21 µM (inactive) | 22.1 µM (inactive) | 36.9 µM (inactive) | 19.1 µM (inactive) | 11.2 µM (inactive) | 26.6 µM (inactive) | 29.3 µM (inactive) | 17.9 µM (inactive) | 30 µM (inactive) | > 72.4 µM (inactive) | 8.71 µM (inactive) | 14.9 µM (inactive) | 23.1 µM (inactive) | 14.3 µM (inactive) | 14.8 µM (inactive) | 7.96 µM (inactive)
Cn1c2ccccc2c(=O)c2c(O)cc3c(c21)C=CC1(CCCCC1)O3 | > 10 µM (inactive) | > 10 µM (inactive) | > 10 µM (inactive) | > 10 µM (inactive) | > 10 µM (inactive) | 8.41 µM (inactive) | > 10 µM (inactive) | > 10 µM (inactive) | > 10 µM (inactive) | > 10 µM (inactive) | > 10 µM (inactive) | > 10 µM (inactive) | > 10 µM (inactive) | > 10 µM (inactive) | > 10 µM (inactive) | > 10 µM (inactive) | > 10 µM (inactive) | > 10 µM (inactive) | > 10 µM (inactive) | > 10 µM (inactive)
CC(C)SC1SCC2C(=O)N(C)C3(CC3C)C(=O)OCC(NC(=O)c3nc4ccccc4cc3O)C(=O)NC(C)C(=O)N(C)C1C(=O)N(C)C1(CC1C)C(=O)OCC(NC(=O)c1nc3ccccc3cc1O)C(=O)NC(C)C(=O)N2C (centres undefined) | < 0.0001 µM (active) | < 0.0001 µM (active) | < 0.0001 µM (active) | < 0.0001 µM (active) | < 0.0001 µM (active) | 0.00298 µM (active) | < 0.0001 µM (active) | < 0.0001 µM (active) | < 0.0001 µM (active) | < 0.0001 µM (active) | < 0.0001 µM (active) | < 0.0001 µM (active) | < 0.0001 µM (active) | < 0.0001 µM (active) | < 0.0001 µM (active) | < 0.0001 µM (active) | < 0.0001 µM (active) | < 0.0001 µM (active) | < 0.0001 µM (active) | < 0.0001 µM (active)
C=C1C(=O)O[C@@H]2/C=C(\C)CC/C=C(/COC(C)=O)C[C@@H](OC(C)=O)[C@@H]12 | 7.83 µM (inactive) | 3.85 µM (inactive) | 6.79 µM (inactive) | 0.718 µM (active) | 53.7 µM (inactive) | 11.1 µM (inactive) | 22.9 µM (inactive) | 11.3 µM (inactive) | 50.1 µM (inactive) | 7.48 µM (inactive) | 9.38 µM (inactive) | 7.73 µM (inactive) | 3.44 µM (inactive) | 40.6 µM (inactive) | 11.6 µM (inactive) | 18.7 µM (inactive) | 4.49 µM (inactive) | 16 µM (inactive) | 37.4 µM (inactive) | 16.2 µM (inactive)
COC1Cc2c(C)c(OC(C)=O)c3cccnc3c2O1 (centres undefined) | > 100 µM (inactive) | 34.9 µM (inactive) | 17.3 µM (inactive) | 10.7 µM (inactive) | 32.4 µM (inactive) | 15.4 µM (inactive) | 25.1 µM (inactive) | 18.5 µM (inactive) | 17.4 µM (inactive) | > 100 µM (inactive) | 14.9 µM (inactive) | 18.6 µM (inactive) | 91.8 µM (inactive) | 26.9 µM (inactive) | 15.3 µM (inactive) | 37.2 µM (inactive) | 14.5 µM (inactive) | 13.9 µM (inactive) | 17.3 µM (inactive) | 48.2 µM (inactive)
Oc1ccc(-c2nc3cc(C(F)(F)F)ccc3n2CC2CCCN3CCCCC23)cc1 (centres undefined) | 16.9 µM (inactive) | 15.7 µM (inactive) | 17.1 µM (inactive) | 14.7 µM (inactive) | 13.4 µM (inactive) | 14.8 µM (inactive) | 12.1 µM (inactive) |  | 14.9 µM (inactive) | 18 µM (inactive) | 15.5 µM (inactive) | 14.9 µM (inactive) |  | 12.6 µM (inactive) | 14.1 µM (inactive) | 14.8 µM (inactive) | 13 µM (inactive) | 14.7 µM (inactive) |  | 18.7 µM (inactive)
OC1(c2ccc(Cl)cc2)c2ccccc2-c2nc3ccccc3n21 (centres undefined) | > 100 µM (inactive) | 90.4 µM (inactive) | 79.4 µM (inactive) | > 100 µM (inactive) | 97.9 µM (inactive) | 84.7 µM (inactive) | 37.8 µM (inactive) | > 100 µM (inactive) | > 100 µM (inactive) | > 100 µM (inactive) | 29.2 µM (inactive) | > 100 µM (inactive) | > 100 µM (inactive) | 49 µM (inactive) | > 100 µM (inactive) | > 100 µM (inactive) | 48.4 µM (inactive) | 39.3 µM (inactive) | 52.7 µM (inactive) | > 100 µM (inactive)
